Measurements: patent US11801255B2, “Lipid disulfide prodrugs and uses related thereto” (priority 2017, dated 2023)
pEC50: −log10 of the molar value. Like-named read-outs stand apart in the source and are kept apart here.

Assays:
HIV-1 = assay: microbe, parasite or virus in culture; details: for TI(CC50/EC50): HIV-1, PBMCs
Experimental: (§1) Compounds synthesized were evaluated against HIV-infected PBMCs and antiviral activity was assessed by measuring reverse transcriptase in cell supernatants. Compounds 11a-e, 12a-e, and 13 were assayed against HBV and qPCR was used to quantify viral DNA following incubation in HepG2.2.15 cells after 6 days.

PBMCs = assay: in vitro; type: cell-based, human
in vitro = type: cell-based, human; details: human; Table 1; viability of uninfected cells reduced by 50%; read-out: HIV-1 CC50 (PBMCs)
HepG2 = assay: Cytotoxicity: viability of uninfected HepG2 cells; type: cell-based; details: Table 1; uninfected cells; read-out: HBV CC50 (HepG2)
HBV = assay: Antiviral activity against HBV in HepG2.2.15 cells, viral DNA by qPCR after 6 days; details: Table 1
Experimental: as §1

[1] = read-out: HIV-1 activity (EC50), PBMCs
[2] = Table 4, read-out: CC50 (PBMCs)
[3] = read-out: EC50 (PBMCs), Table 4, HIV-1

SMILES	TI(CC50/EC50) (HIV-1; Table 4)	pEC50 (HIV-1; [1])	CC50 (PBMCs; [2])	pEC50 (HIV-1; [3])	other results
CCCCCCCCCCCCCCCCSSCCOP(=O)(COC(C)Cn1cnc2c(N)ncnc21)OC (mixture of isomers) [Compound 13]	1,500	7.59	38200 nM		
CCCCCCCCCCCCCCCCSSCCOP(=O)(COC(C)Cn1cnc2c(N)ncnc21)OCC (mixture of isomers) [Compound 14]	104		36200 nM	6.46	
CCCCCCCCCCCCCCCCSSCCOP(=O)(COC(C)Cn1cnc2c(N)ncnc21)OCCC (mixture of isomers) [Compound 15]	49.0		10600 nM	6.67	
CCCCCCCCCCCCCCCCSSCCOP(=O)(COC(C)Cn1cnc2c(N)ncnc21)OCCCC (mixture of isomers) [Compound 16]	150		27900 nM	6.72	
CCCCCCCCCCCCCCCCSSCCOP(=O)(COC(C)Cn1cnc2c(N)ncnc21)OC(C)CC (mixture of isomers) [Compound 17]	480		23700 nM	7.31	HIV-1 activity of s-Bu ester relative to n-Bu analogue 16 (HIV-1; vs compound 16): nearly four-fold
CCCCCCCCCCCCCCCCSSCCOP(=O)(COC(C)Cn1cnc2c(N)ncnc21)OCC(C)(C)C (mixture of isomers) [Compound 18]	>700	6.85	> 100000 nM		
CCCCCCCCCCCCCCCCSSCCOP(=O)(COC(C)Cn1cnc2c(N)ncnc21)OCc1ccccc1 (mixture of isomers) [Compound 19]	2,300	7.74	41100 nM		
CCCCCCCCCCCCCCCCSSCCOP(=O)(COC(C)Cn1cnc2c(N)ncnc21)Nc1ccccc1 (mixture of isomers) [Compound 20]	7,000	8.30	34200 nM		
CCCCCCCCCCCCCCCCCCOP(=O)(COC(C)Cn1cnc2c(N)ncnc21)OCCSSCCCCCCCCCCCCCCCC (mixture of isomers) [Compound 21]	>50	6.04	> 50000 nM		
CCCCCCCCCCCCCCCCOCCCOP(=O)(O)CO[C@H](C)Cn1cnc2c(N)ncnc21 [CMX-157, Hexadecyloxypropyl-Tenofovir, reference compound]					HIV-1 TI (CC50/EC50) (HIV-1): >5000; pEC50 (HIV-1; Human immunodeficiency virus 1, PBMC, read-out: HIV-1 EC50 (PBMCs)): 7.70; pEC50 (HIV-1; Human immunodeficiency virus 1, PBMC, read-out: HIV-1 activity (EC50)): 7.70; CC50 (in vitro): > 100000 nM
CCCCCCCCCCSSCCOP(=O)(O)CO[C@H](C)Cn1cnc2c(N)ncnc21.N [Compound 11a]		7.07			CC50 (HepG2): > 50000 nM; HBV TI (CC50/EC50) (HBV; HepG2): >1; pEC50 (HBV; read-out: HBV EC50 (HepG2), inhibit HBV by 50%): < 4.30; fold less potent than TDF, HIV-1 (HIV-1; EC50 ratio vs TDF): 18 fold; HIV-1 TI (CC50/EC50) (HIV-1; Table 1, PBMCs): >590; CC50 (PBMCs; Table 1, viability of uninfected cells reduced by 50%, read-out: HIV-1 CC50 (PBMCs)): > 50000 nM
